# “Also recorded” adds a separate entry of the source.
# Legend:
# [1] = tested on: Stat3; assay: Stat3 phosphorylation and nuclear translocation in C4HD cells; format: cell-based, mouse
# Description: (§1) Lysates were prepared from cells subjected to the different treatments and proteins were subjected to SDS-PAGE as previously described (21). Membranes were immunoblotted with the antibodies detailed in each experiment. When phospho(p)-protein antibodies were used, filters were reprobed with total protein antibodies. Signal intensities of pErbB-2, pStat3, pSrc, pPR, pJak1, and pJak2 bands were analyzed by densitometry and normalized to total protein bands. Similarly, signal intensities of PR, cyclin D1, Stat3, and ErbB-2 bands were normalized to actin or β tubulin bands. […] The NEPER Nuclear and Cytoplasmic Extraction Reagents technique (Pierce Biotechnology) was performed as per manufacturer's instructions. Nuclear association between ErbB-2 and Stat3 was studied by performing coimmunoprecipitation experiments using 200 μg of nuclear protein lysates as described (22).
# siRNAs targeting ErbB-2, Stat3, and Pr were synthesized by Dharmacon, Inc (Lafayatte, Colo.) (ErbB-2siRNA: 5′GAUGGUGCUUACUCAUUGA3′ (SEQ ID NO:8), designed to specifically knockdown mouse ErbB2 but not human ErbB-2; Stat3siRNA: 5′[…]3′ (SEQ ID NO:9) targets mouse Stat3; and 5′[…]3′ (SEQ ID NO:10) targets human Stat3; PRsiRNA: 5′[…]3′(SEQ ID NO:11)). […] Transfection of siRNAs duplexes was performed by using the DharmaFECT transfection reagent following the manufacturer's direction for 3 days. For reconstitution experiments cotransfection of 25 nM ErbB-2 siRNA with 2 μg expression vectors was performed using DharmaFECT Duo transfection reagent (Dharmacon).
# (§2) Cells grown on glass coverslips were fixed and permeabilized in ice-cold methanol and were then blocked with PBS 1% BSA. ErbB-2 was localized using either a rabbit polyclonal (C-18) or a mouse monoclonal (F-11) ErbB-2 antibody (Santa Cruz Biotechnology) and Stat3 was detected using a mouse monoclonal antibody (124H6, Cell Signaling), followed by incubation with a goat anti-rabbit IgG-Alexa 488 (Molecular Probes, Eugene, Oreg.) secondary antibody for ErbB-2 (C-18) and with a rhodamine conjugated goat anti-mouse secondary antibody (Jackson ImmunoResearch Laboratories, West Grove, Pa.) for both ErbB2 (F-11) and Stat3. Negative controls were carried out using PBS instead of primary antibodies, or 5× competitive peptide (Santa Cruz Biotechnology) when ErbB-2 (C-18) was used. When cells were transfected with hErbB-2ΔNLS, green fluorescent protein from this expression vector was visualized by direct fluorescence imaging. […] FIGS. 2A, 3B and C, illustrate a few cells representative of the ones examined. Cells were analyzed using a Nikon Eclipse E800 confocal laser microscopy system (22).
# [2] = tested on: cyclin D1; assay: Cyclin D1 protein levels by Western blot in C4HD cells; format: cell-based, mouse; details: C4HD cells preincubated or transfected, then MPA for 48 h
# Description: (§3) Primary cultures of epithelial cells from C4HD tumors were performed as described (2). T47D cells were obtained from American Type Culture Collection and T47D-Y cells were a generous gift from Dr. K. Horwitz (Denver, Colo.). To evaluate the effects of the pharmacological inhibitors on MPA-induced proteins phosphorylation or cyclin D1 expression, cells were preincubated for 90 min with RU486, PP2, Tyrphostin AG825 or Jak inhibitor I before addition of MPA. Cell proliferation was evaluated by [3H]-thymidine incorporation assay and cell cycle distribution was analyzed by flow cytometry, as described (22).
# as §1, with “Nuclear association between ErbB-2 and Stat3 was studied by performing coimmunoprecipitation experiments using 200 μg of nuclear protein lysates as described (22).” left out
# [3] = tested on: ErbB-2; assay: ErbB-2 cellular localization (subcellular fractionation/immunoblot, confocal microscopy) in C4HD cells; format: cell-based, mouse; details: C4HD cells pretreated with inhibitor before MPA
# Description: (§4) Lysates were prepared from cells subjected to the different treatments and proteins were subjected to SDS-PAGE as previously described (21). Membranes were immunoblotted with the antibodies detailed in each experiment. When phospho(p)-protein antibodies were used, filters were reprobed with total protein antibodies. Signal intensities of pErbB-2, pStat3, pSrc, pPR, pJak1, and pJak2 bands were analyzed by densitometry and normalized to total protein bands. Similarly, signal intensities of PR, cyclin D1, Stat3, and ErbB-2 bands were normalized to actin or β tubulin bands. […]
# (§5) Cells grown on glass coverslips were fixed and permeabilized in ice-cold methanol and were then blocked with PBS 1% BSA. ErbB-2 was localized using either a rabbit polyclonal (C-18) or a mouse monoclonal (F-11) ErbB-2 antibody (Santa Cruz Biotechnology) and Stat3 was detected using a mouse monoclonal antibody (124H6, Cell Signaling), followed by incubation with a goat anti-rabbit IgG-Alexa 488 (Molecular Probes, Eugene, Oreg.) secondary antibody for ErbB-2 (C-18) and with a rhodamine conjugated goat anti-mouse secondary antibody (Jackson ImmunoResearch Laboratories, West Grove, Pa.) for both ErbB2 (F-11) and Stat3. […] When cells were transfected with hErbB-2ΔNLS, green fluorescent protein from this expression vector was visualized by direct fluorescence imaging. […]
# [4] = tested on: ErbB-2; assay: ErbB-2 tyrosine phosphorylation by Western blot in C4HD cells; format: cell-based, mouse; details: C4HD cells preincubated with inhibitor or transfected with siRNA before MPA
# Description: as §3
# as §1, with “Nuclear association between ErbB-2 and Stat3 was studied by performing coimmunoprecipitation experiments using 200 μg of nuclear protein lysates as described (22).” left out
# [5] = tested on: ErbB-2; assay: ErbB-2 tyrosine phosphorylation by Western blot in T47D cells; format: cell-based, human; details: T47D cells preincubated with inhibitor before MPA
# Description: as §3, §1
# [6] = tested on: ErbB-2; assay: ErbB-2 cellular localization (subcellular fractionation/immunoblot, confocal microscopy) in T47D cells; format: cell-based, human; details: T47D cells pretreated with inhibitor before MPA
# Description: as §4, §5
# [7] = tested on: Stat3; assay: Stat3 phosphorylation and nuclear translocation in T47D cells; format: cell-based, human; details: T47D cells pretreated with inhibitor before MPA
# Description: as §1, §2
compound,measurement,setting,value
"5′GAUGGUGCUUACUCAUUGA3′ (other strand missing, further chemistry not given here) [ErbB-2 siRNAs, siRNA designed to specifically knockdown mouse ErbB2 but not human ErbB-2]",MPA-induced Stat3 phosphorylation,[1]; C4HD cells transfected with siRNAs to knock down mouse ErbB-2,inhibited
"5′GGUCAAAUUUCCUGAGUUGUU3′ (other strand missing, further chemistry not given here) [Stat3 siRNAs, siRNA that targets mouse Stat3]",MPA-induced cyclin D1 protein levels,[2],abrogated
COc1cc(/C=C(\C#N)C(N)=O)cc(CSc2nc3ccccc3s2)c1O [AG825],MPA-induced ErbB-2 nuclear translocation,[3],abrogated; also recorded: significantly inhibited
same,MPA-induced ErbB-2 phosphorylation,[4],prevented
same,MPA-induced ErbB-2 phosphorylation,[5],prevented
same,MPA-induced ErbB-2 nuclear translocation,[6],abrogated; also recorded: significantly inhibited
same,MPA-induced Stat3 nuclear migration,[1]; C4HD cells pretreated with inhibitor before MPA,absolutely prevented
same,MPA-induced Stat3 nuclear migration,[7],absolutely prevented

# Source: patent US9427458B2, “Methods for inhibiting cancer cell proliferation” (Consejo Nacional de Investigaciones Cientificas y Tecnicas, …, priority 2010, dated 2016)
